# Assay results as given in ChEMBL document CHEMBL3885861, “Open TG-GATES”.
# Species: Rattus norvegicus
# Test: Open TG-GATES - Regimen: Single
# Assay type: toxicity, organism-based, Sprague-Dawley
# Design: regimen Single, gender Male, age 6 weeks
# Conditions: in vivo, po, 120 mg/kg, route gavage, dose level Middle; for APTT / Bas / Eos / Fbg / Hb / Ht / Lym / MCH / MCHC / MCV / Mono / Neu / PT / Plat / RBC / Ret / WBC: tissue Blood; for KIDNEY_L / KIDNEY_R / KIDNEY_TOTAL: tissue Kidney; for LIVER: tissue Liver; for A/G / ALP / ALT / AST / BUN / CRE / Ca / Cl / DBIL / GLC / IP / K / LDH / Na / PL / RALB / TBIL / TC / TG / TP / gamma-GTP: tissue Plasma
compound,measurement,setting,value
COc1ccc(Cc2nccc3cc(OC)c(OC)cc23)cc1OC [PAPAVERINE],TERMINAL_BW,3 h,221.6 g
same,APTT,3 h,22.7 s
same,Bas,3 h,0%
same,Eos,3 h,1%
same,Fbg,3 h,312.8 mg/dL
same,Hb,3 h,13.4 g/dL
same,Ht,3 h,40.5%
same,Lym,3 h,77.6%
same,MCH,3 h,20.9 pg
same,MCHC,3 h,33.2%
same,MCV,3 h,63 fL
same,Mono,3 h,2.4%
same,Neu,3 h,17.8%
same,PT,3 h,15.9 s
same,Plat,3 h,108.5 x10_4/uL
same,RBC,3 h,641.8 x10_4/ul
same,Ret,3 h,7.3%
same,WBC,3 h,88.5 x10_2/uL
same,KIDNEY_L,3 h,0.9 g
same,KIDNEY_R,3 h,1 g
same,KIDNEY_TOTAL,3 h,1.9 g
same,LIVER,3 h,9.5 g
same,A/G,3 h,1.2
same,ALP,3 h,1542 IU/L
same,ALT,3 h,43.6 IU/L
same,AST,3 h,78.6 IU/L
same,BUN,3 h,11.4 mg/dL
same,CRE,3 h,0.1 mg/dL
same,Ca,3 h,11 mg/dL
same,Cl,3 h,107.8 meq/L
same,DBIL,3 h,0 mg/dL
same,GLC,3 h,181.4 mg/dL
same,IP,3 h,8.7 mg/dL
same,K,3 h,4 meq/L
same,LDH,3 h,162.8 IU/L
same,Na,3 h,141.8 meq/L
same,PL,3 h,128.4 mg/dL
same,RALB,3 h,2.9 g/dL
same,TBIL,3 h,0.008 mg/dL
same,TC,3 h,74.6 mg/dL
same,TG,3 h,43.8 mg/dL
same,TP,3 h,5.3 g/dL
same,gamma-GTP,3 h,2 IU/L
same,TERMINAL_BW,6 h,219.8 g
same,APTT,6 h,20.9 s
same,Bas,6 h,0%
same,Eos,6 h,0.8%
same,Fbg,6 h,317.8 mg/dL
same,Hb,6 h,13 g/dL
same,Ht,6 h,39.5%
same,Lym,6 h,80.2%
same,MCH,6 h,20.9 pg
same,MCHC,6 h,32.9%
same,MCV,6 h,63.7 fL
same,Mono,6 h,2.8%
same,Neu,6 h,14.6%
same,PT,6 h,15.8 s
same,Plat,6 h,131.3 x10_4/uL
same,RBC,6 h,622.4 x10_4/ul
same,Ret,6 h,8.7%
same,WBC,6 h,116 x10_2/uL
same,KIDNEY_L,6 h,1 g
same,KIDNEY_R,6 h,1 g
same,KIDNEY_TOTAL,6 h,1.9 g
same,LIVER,6 h,9.5 g
same,A/G,6 h,1.3
same,ALP,6 h,1418.8 IU/L
same,ALT,6 h,36.6 IU/L
same,AST,6 h,71.6 IU/L
same,BUN,6 h,11.2 mg/dL
same,CRE,6 h,0.2 mg/dL
same,Ca,6 h,11.4 mg/dL
same,Cl,6 h,107.2 meq/L
same,DBIL,6 h,0 mg/dL
same,GLC,6 h,181 mg/dL
same,IP,6 h,9.4 mg/dL
same,K,6 h,4.3 meq/L
same,LDH,6 h,166.2 IU/L
same,Na,6 h,140.4 meq/L
same,PL,6 h,137.4 mg/dL
same,RALB,6 h,3.1 g/dL
same,TBIL,6 h,0.022 mg/dL
same,TC,6 h,78.2 mg/dL
same,TG,6 h,63.8 mg/dL
same,TP,6 h,5.5 g/dL
same,gamma-GTP,6 h,2.4 IU/L
same,TERMINAL_BW,9 h,217.8 g
same,APTT,9 h,22.6 s
same,Bas,9 h,0%
same,Eos,9 h,1%
same,Fbg,9 h,319.4 mg/dL
same,Hb,9 h,13.2 g/dL
same,Ht,9 h,39.5%
same,Lym,9 h,73.8%
same,MCH,9 h,20.6 pg
same,MCHC,9 h,33.4%
same,MCV,9 h,61.8 fL
same,Mono,9 h,2.8%
same,Neu,9 h,22%
same,PT,9 h,16.2 s
same,Plat,9 h,117.1 x10_4/uL
same,RBC,9 h,638.6 x10_4/ul
same,Ret,9 h,6.6%
same,WBC,9 h,87.6 x10_2/uL
same,KIDNEY_L,9 h,0.9 g
same,KIDNEY_R,9 h,1 g
same,KIDNEY_TOTAL,9 h,1.9 g
same,LIVER,9 h,8.9 g
same,A/G,9 h,1.2
same,ALP,9 h,1569.2 IU/L
same,ALT,9 h,39.2 IU/L
same,AST,9 h,72 IU/L
same,BUN,9 h,11.6 mg/dL
same,CRE,9 h,0.1 mg/dL
same,Ca,9 h,11 mg/dL
same,Cl,9 h,107.6 meq/L
same,DBIL,9 h,0 mg/dL
same,GLC,9 h,183.8 mg/dL
same,IP,9 h,8.9 mg/dL
same,K,9 h,3.9 meq/L
same,LDH,9 h,183.2 IU/L
same,Na,9 h,141 meq/L
same,PL,9 h,132.8 mg/dL
same,RALB,9 h,3 g/dL
same,TBIL,9 h,0.022 mg/dL
same,TC,9 h,74 mg/dL
same,TG,9 h,54.6 mg/dL
same,TP,9 h,5.4 g/dL
same,gamma-GTP,9 h,1.6 IU/L
same,TERMINAL_BW,24 h,231.5 g
same,APTT,24 h,19.5 s
same,Bas,24 h,0%
same,Eos,24 h,1%
same,Fbg,24 h,327.8 mg/dL
same,Hb,24 h,13.3 g/dL
same,Ht,24 h,39.7%
same,Lym,24 h,80.2%
same,MCH,24 h,21 pg
same,MCHC,24 h,33.5%
same,MCV,24 h,62.7 fL
same,Mono,24 h,2%
same,Neu,24 h,15.2%
same,PT,24 h,15.6 s
same,Plat,24 h,124.7 x10_4/uL
same,RBC,24 h,633.8 x10_4/ul
same,Ret,24 h,7.6%
same,WBC,24 h,82.4 x10_2/uL
same,KIDNEY_L,24 h,1 g
same,KIDNEY_R,24 h,1 g
same,KIDNEY_TOTAL,24 h,2 g
same,LIVER,24 h,11.2 g
same,A/G,24 h,1.3
same,ALP,24 h,1530.4 IU/L
same,ALT,24 h,39.4 IU/L
same,AST,24 h,67.6 IU/L
same,BUN,24 h,15 mg/dL
same,CRE,24 h,0.1 mg/dL
same,Ca,24 h,11.1 mg/dL
same,Cl,24 h,105.8 meq/L
same,DBIL,24 h,0 mg/dL
same,GLC,24 h,189 mg/dL
same,IP,24 h,7.8 mg/dL
same,K,24 h,4.2 meq/L
same,LDH,24 h,171.2 IU/L
same,Na,24 h,143.4 meq/L
same,PL,24 h,152.4 mg/dL
same,RALB,24 h,3.1 g/dL
same,TBIL,24 h,0.006 mg/dL
same,TC,24 h,79.2 mg/dL
same,TG,24 h,145.2 mg/dL
same,TP,24 h,5.6 g/dL
same,gamma-GTP,24 h,1.4 IU/L
